Laboratory results taken from patent publication US4956363A, “Treatment of cognitive and behavioral disorders associated with aging and with dementia syndromes” (U C B S.A., priority 1988, dated 1990).
Entries after “also recorded” stand apart in the source; their conditions may differ.

How the values were obtained:
[1] = system: effects of scopolamine on the EEG, band from 6.4 to 9.6 Hz; assay: Inhibition of the effects of scopolamine on the electroencephalogram (EEG); type: in vivo, rats (male albino Sprague-Dawley SPF); details: for Inhibition of the effects of scopolamine on the band from 6.4 to 9.6 Hz in the EEG: rats, i.p. at the dose (mg/kg) of the line in Table IV, scopolamine 0.5 mg/kg i.p.
Procedure: Male albino Sprague-Dawley SPF rats (160 to 200 g) are used in this test.
When the animals are 3 months old, 5 cortical electrodes are implanted permanently, aseptically and under a general anesthesia: one inert electrode, one left and one right frontal electrode, and one left and one right occipital electrode (P. ETEVENON, loc. cit.).
The test is carried out when the animals are about 15 months old. In the meantime, the animals are kept in individual cages. They are given water and food ad libitum and are subjected to a regular daily cycle comprising a period of darkness between 6 o'clock in the evening and 6 o'clock in the morning. At the same time, the animals are progressively acclimatized to the cages of the sound-proof cabin which they will subsequently occupy for recording of the electroencephalograms, as well as to the experimental conditions, by intraperitoneal administration of placebo. The products are administered immediately before the EEG is recorded.
The rats are divided into groups of 8 animals and 16 samples of the EEG spectra are recorded over 5 seconds (two EEG spectra per animal). The spectra obtained are then analyzed by computer (rapid Fourier transform), which enables the average of the 16 measurements performed to be determined for each group and the overall intensity of the EEG spectrum and the distribution of this intensity (in %) in the various frequency bands to be deduced for each animal.
This operation (recording of the spectra) is repeated 9 times (total duration: 121 minutes).

[2] = system: learning of the avoidance reflex; assay: Multiple-trial passive avoidance: learning; type: in vivo, rats (male Sprague-Dawley); details: i.p. at the dose (mg/kg) of the line in Table V, 30 min before test; criterion 180 seconds on the mat
Procedure: To evaluate whether a compound can promote learning, the following test is carried out.
This experiment is repeated until the animal remains on the rubber mat for at least 180 seconds in order to avoid the electric shock. The learning is expressed by the average number of trials needed to reach a period of 180 seconds remaining on the mat.
A period of remaining on the rubber mat of 180 seconds is regarded as being the maximum performance which can be realized by the animal to avoid the electric shock. Rats which remain on the mat for this period have acquired the avoidance reflex and are replaced in their original cage without receiving the electric shock.
group 1 receives an intraperitoneal injection of physiological salt solution:
group 2 receives an intraperitoneal injection of the compound to be tested:
Columns 3 and 4 show the results obtained in the test used to evaluate the learning. The figures indicate the average number of trials needed for a control animal (group 1) or an animal treated (group 2) with the compound to learn to remain on the rubber mat for 180 seconds in order to avoid the electric shock. The results were analyzed by the Student test.

male NMRI mice = assay: Toxicity, Irwin's test; type: in vivo; details: mice, i.p.; death of two animals out of three within 48 hours
Procedure: Progressive doses of the compound to be tested are administered intraperitoneally to groups of three mice until the lethal dose is reached (dose which causes the death of two animals out of three within 48 hours).

[3] = system: salivatory effect of oxotremorine (peripheral cholinergic activation); assay: Potentiation of the peripheral cholinergic (salivatory) effect of oxotremorine; type: in vivo, mice (male NMRI); details: 20 minutes after administration at the minimum active dose; in words
Procedure: The degree of peripheral cholinergic activation is measured by the salivatory effect quantified by the following rating system:
score 1: a little saliva is found around the teeth;
score 2: the saliva forms a narrow band around the mouth;
score 4: the saliva wets a surface underneath the chin;
score 6: the saliva runs from the mouth, for example onto the forelegs.
The intermediate scores are not used, and the saliva is wiped away after each observation.
(§1) Male NMRI mice (20 to 25 g) are divided into four groups of five animals, that is to say: one control group and three treated groups.
The compound to be tested is administered intraperitoneally (to the three treated groups) 20 minutes before the administration of the oxotremorine, at a dose which differs for each of the treated groups. […]
(§2) For each of the groups, the individual scores recorded at each observation period are summed: this enables to plot a curve showing the sum of the scores as a function of time, which is characteristic for each group.
(§3) The mean values of the areas under the curves obtained for each of the treated groups are compared with the mean value of the area under the curve corresponding to the control group and is subjected to statistical analysis by the Mann-Whitney method. From this comparison, "a minimum active dose" can be determined. […]

[4] = system: tremogenic effect of oxotremorine (central cholinergic activation); assay: Potentiation of the central cholinergic (tremogenic) effect of oxotremorine; type: in vivo, mice (male NMRI)
Procedure: The degree of central cholinergic activation is measured by the tremogenic effect quantified by the following rating system:
score 1: slight and periodic occasional tremors;
score 2: moderate and slight tremors often repeated;
score 4: accentuated tremors, but interrupted by periods of calm;
score 6: very accentuated and almost continuous tremors.
as §1
The compound to be tested is administered intraperitoneally (to the three treated groups) 20 minutes before the administration of the oxotremorine, at a dose which differs for each of the treated groups.
The oxotremorine is administered intraperitoneally to the treated groups and to the control group at a dose of 0.05 mg/kg dissolved in 10 ml/kg of physiological salt solution. […]
as §2, §3

[5] = system: hyperactivity induced by scopolamine; details: rats placed in a new environment; in words, literature; cited from earlier work
memory = details: in words, literature; cited from earlier work
[6] = system: amnesia induced by scopolamine; assay: Multiple-trial passive avoidance: mnemic retention (amnesia induced by scopolamine)
Procedure: To this end, the method of multiple-trial passive avoidance has been used. This method is well-known for evaluating the effects which a product exerts on the memory and learning (A. FINE et al., Proc. Natl. Acad. Sci. U.S.A., 82, (1985), 5227-5230).
The test is carried out on male Sprague-Dawley rats (160-200 g). which are kept in standard cages throughout the experiment.
The apparatus used is a transparent square cage with 35 cm sides and 25 cm high, fitted with a grid floor which can be electrified. An insulating rubber mat (10×17 cm) is placed on the floor in one of the corners of the cage.
Each animal is subjected to four tests at times 0, 4, 24 and 28 hours. In the first test (time 0), the animal is placed on the rubber mat and the time which it takes to decide to leave this position to explore the cage is recorded. After 20 seconds of exploration, the rat receives an electric shock (3 seconds duration) in the paws, causing a flight reaction. The rat is immediately removed from the apparatus and replaced in its original cage. In the course of the three subsequent tests (times: 4, 24 and 28 hours), the animal is replaced on the rubber mat and the time taken to leave this position is recorded. When the four paws of the animal rest on the grid, it receives an electric shock and is immediately removed from the apparatus.
At the start of the experiment, the rats are divided into 4 homogeneous groups of 15 animals. Thirty minutes before each test, each group of animals is subjected to a predetermined treatment:
Groups 1 and 2 are used in the first experiment and groups 3 and 4 are used in the second experiment.
The differences observed are analyzed statistically by the Mann-Whitney method.

[7] = system: hyperactivity induced by scopolamine; assay: Inhibition of hyperactivity induced by scopolamine; type: in vivo, rats (male Sprague-Dawley SPF); details: administered more than 15 minutes before the measurements; in words

With `CCCc1nc(N)nc(N2CCOCC2)n1` [Compound 44, 2-Amino-4-morpholino-6-propyl-1,3,5-triazine] the “Inhibition of the effects of scopolamine on the band from 6.4 to 9.6 Hz in the EEG” value (“Inhibition of the effects of scopolamine” for short) [1] was 100%, the “Learning, average number of trials (group 2)” value (“Learning, average number” for short) [2] was 1.13 and the Lethal dose (male NMRI mice) was 779 mg/kg.

In the case of `COC(=O)C1=CCCN(C)C1` [arecoline, methyl 1,2,5,6-tetrahydro-1-methyl-3-pyridinecarboxylate], the “potentiation of the salivatory effect of oxotremorine” value [3] was “no potentiation” and the “potentiation of the tremogenic effect of oxotremorine” value ([4]; 20 minutes after administration at the minimum active dose, in words) was “no potentiation”.

In the case of `CN1[C@@H]2C[C@@H](OC(=O)[C@H](CO)c3ccccc3)C[C@H]1[C@@H]1O[C@@H]12` [scopolamine], the “effect on exploratory activity” value [5] is given as “induces exploratory hyperactivity” and the effect on memory (memory) is given as “gives rise to memory deficiencies similar to those observed in elderly subjects”.

With `CCCc1nc(NC)nc(N2CCOCC2)n1` [Compound 45, 2-(Methylamino)-4-morpholino-6-propyl-1,3,5-triazine] the “Inhibition of the effects of scopolamine” value [1] was 91.7%, the “Learning, average number” value [2] was 2.00 and the Lethal dose (male NMRI mice) was 821 mg/kg.

In the case of `O=C1CCCN1CC#CCN1CCCC1` [oxotremorine], the minimal effective dose ([4]; Mus musculus, ip, mice, i.p., approximate, read-out: minimum dose of oxotremorine which causes tremors and salivation) was about 0.05 mg/kg.

In the case of `CNC(=O)Oc1ccc2c(c1)[C@]1(C)CCN(C)[C@@H]1N2C` [physostigmine, reference compound], the “Inhibition of the effects of scopolamine” value [1] is given as 76.8%, the “effect on the EEG spectrum” value ([1]; scopolamine 0.5 mg/kg i.p. in rats, in words) is given as “counteracts these variations” and the “effect on exploratory activity” value [5] is given as “counteracts the hyperactivity induced by scopolamine”. The “Learning, average number” value [2] was 2.30, the effect on memory (memory) was “an improvement in anemic disorders; also recorded: capable of combating the amnesia resulting from the administration of anticholinergic agents” and the “Period of remaining on the mat, group 4, 4 hours” value ([6]; compound i.p. at the dose of the line + scopolamine 0.5 mg i.p., 4 h) was 17.8 s. For the same molecule, the “Period of remaining on the mat, group 4, 24 hours” value ([6]; compound i.p. at the dose of the line + scopolamine 0.5 mg i.p., 24 h) was 56.2 s, the “Period of remaining on the mat, group 4, 28 hours” value ([6]; compound i.p. at the dose of the line + scopolamine 0.5 mg i.p., 28 h) was 53.4 s and the “relation of active dose to side effects / toxic dose” value ([6]; dose active against the amnesing effect of scopolamine, in words) was “obtained at a dose which has side effects and is very close to the toxic dose”. For the same molecule, the “effect against the amnesing effect of scopolamine” value ([6]; in words) was “favorable action against the amnesing effect of scopolamine” and the “activity of physostigmine on the hyperactivity induced by scopolamine” value [7] was “inactive”.
